How the values were obtained:
[1] = tested on: bovine choroidal microvascular endothelial cells (BCEC); assay: BCEC proliferation assay; assay type: cell-based
Protocol: Proliferation assays with BCECs and BRECs were performed. Log-phase growing BCECs or BRECs (passage <10) were trypsinized, re-suspended and seeded in 96-well plates (no coating) in low-glucose DMEM supplemented with 10% bovine calf serum, 2 mM glutamine, and antibiotics (growth medium), at a density of 1200-1500 cells per well in 200 μl volume. All reagents were added at the indicated final concentrations. […] Fluorescence was measured at 530 nm excitation wavelength and 590 nm emission wavelength. The experiments were repeated at least three times. […] On each 96-well plate, untreated and VEGF-treated (10/ng/ml) wells were included to monitor plate-to-plate variations. 20% methanol or 0.05% DMSO served as negative controls. 0.05% DMSO served as negative controls when Cas was tested in these cells. Human […] and human adult […] were split into Gelatin-coated 96 wells (2000 cells per well) in low glucose DMEM containing 10% FBS. 1200 cells/well was set up for proliferation assay in low glucose media containing FBS. […] HUVEC (p7-10) were grown on gelatin-coated plate until it reached 70-80% confluency. On the day of the assay, cells were dissociated with 0.05% trypsin, which was neutralized with 0.5% FBS-containing EBM. Cells were briefly spun and then re-suspended in 0.5% FBS-media. Cells were counted and plated in 96-well, 1000 cells/well. Triplicate wells were used for each treatment. Data were collected at day 3, and then cells were fixed in 4% paraformaldehyde for 15 min before adding crystal violet. Cell-covered areas were quantified after taking pictures by Image J software.

[2] = tested on: BCEC confluent monolayers; assay: BCEC scratch assay; assay type: cell-based, bovine; details: 40 uM ManN or 50 ng/ml of VEGF; after 48 hours
Protocol: BCECs (passage 6-10) and HUVEC (passage 6-8) were used in this assay. Cells were grown until about 80% confluency in 6-well plates, washed twice with PBS and then starved in serum-free DMEM (low Glucose, Hyclone) for 5 hrs before making a “scratch” using 1 ml tip. Cell monolayers were briefly washed once with serum-free media, followed by various treatments in media containing 1% FBS. 48 hrs later, the assay was stopped by adding 2 ml 4% paraformaldehyde. 20 min later, fixed cells were stained with 1 ml Crystal Violet (Sigma). Plates were washed gently under the running tap water and air-dried before taking pictures. Images were acquired by ZEISS Discovery […] microscopy equipped with […] camera. Quantification of wound closure was done using AxioVision LE Rel.4.4 software. Six images were taken for each sample and six measurements (in pixel) were made on each image using AxioVision LE Rel.4.4 software.

[3] = tested on: VEGFR2; assay: Western blot of VEGFR2 molecular mass in BCECs and BRECs; assay type: cell-based, bovine; details: BCECs and BRECs
Protocol: Glycerol-free PNGase F was obtained from New England Biolabs (Ipswich, MA). Briefly, BCECs were lysed with NP-40 containing proteinase inhibitors (Thermo Scientific, Waltham, MA). Lysates were cleared at 4° C. at 5000 g for 25 mins. Total protein content was measured using Pierce BCA protein assay kit (ThermoScientific). […] of protein was mixed with 10× denaturing buffer and H2O to a total volume of […]. Glycoproteins were denatured at 100° C. for 10 mins, followed by adding Glycobuffer and PNGase F. The reaction was carried out at 37° C. for 2 hr.
(§1) Cells were allowed to reach ˜80% confluency in 12-well plates. […] At various time points, plates were taken out of the incubator and kept on ice. Cell monolayers were first washed once with ice-cold PBS before lysis with 250 μl of Pierce RIPA buffer (ThermoFisher Scientific, Rockford, IL) or use 50 mM Tris-HCl (pH 7.6), 150 mM NaCl, 10% Glycerol, 1% NP-40 containing protease/Phosphatase inhibitor cocktail (100×) (Cell signaling, #5872). Lysates were collected and mixed with 4×Bolt LDS Sample Buffer (Novex, Carlsbad, CA) in the presence of Halt protease inhibitors and phosphatase inhibitor cocktail (ThermoFisher scientific, #NP0007). The samples were subjected to SDS-PAGE (Bolt 4-12% Bis-Tris Plus, Invitrogen) using Bolt MES SDS running buffer or NuPAGE 3-8% Tris-Acetate gel using Tris-Acetate SDS running buffer (Novex). HUVECs (passage 6-8) were plated in EBM-2 basal medium (Lonza) with 0.2% FBS. […] Equal amounts of protein lysates were analyzed by SDS-PAGE and blotted with the indicated antibodies. Proteins were transferred using Tris-Glycine buffer with 20% Methanol (Proteonomics grade) (Apex BioResearch Products). Membranes were first incubated with 5% milk in TBST, pH 7.6 (TEKnova, Hollister, CA), followed by blotting with primary and secondary antibodies. ECL anti-rabbit IgG, horseradish peroxidase linked whole antibody from donkey or sheep anti-mouse were obtained from GE Healthcare (UK limited). SuperSignal West Dura Extended Duration substrate was from ThermoFisher Scientific. In some cases, the same PVDF membranes were stripped by 8-min incubation in the Restore Plus Western Blot Stripping Buffer (ThermoFisher Scientific) to show total specific protein expression, followed by second stripping for β-actin expression.

[4] = tested on: Bip, CHOP and ATF-6; assay: Western blot of UPR responsive proteins in BCECs; assay type: cell-based, bovine; details: growing cells deprived of growth factor supply
Protocol: as §1

[5] = tested on: skin wound; assay: Skin wound healing model (splinted wound); assay type: in vivo, mouse; details: day 4; topical 20 μg daily
Excerpt: The model has been previously described. Briefly, C57BL/6 female mice (8-10 weeks old) were obtained from Jackson labs (Sacramento, CA). A fresh, full-thickness punch wound (4 mm diameter) using a punch (Acu Punch, Acuderm inc. Ft. Lauderdale, FL) splinted with a sterile neoprene ring (6-mm outer diameter and 4-mm inner diameter), fastened with 5-6 sutures (4-0 nylon) under the influence of Isoflurane was created on the back of the animal in a Class II Biological Safety Cabinet. For all surgical procedures, sterile technique was followed. Buprenorphine was given subcutaneously prior to awakening from anesthesia for anticipated pain. Mice were monitored until fully awake and were housed individually to minimize damage/biting/fighting to the surgical site. […] Treatment agents were prepared in PBS, sterile-filtered and 25 μl solution was applied daily directly to a wound bed for the first 4-5 days under the influence of Isoflurane, followed by daily observation. Wound closure was monitored by regular imaging and the wound area was quantified using ImageJ (National Institutes of Health, Bethesda, MD, USA). […] Epithelial gap was measured histomorphometrically using AxioVision LE Rel.4.4 software. […] Small vessels stained positive for CD31 were counted microscopically on 10 fields (20×) taken around the wound.

VEGF
fold increase in cell proliferation ([1]; 5 ng/ml VEGF): 4-5 fold
dependence of VEGF activity on glycolysis ([1]; glucose-free media): not dependent on the glycolysis pathway
closure of the scratched area compared to control [2]: significantly accelerated
effect on apparent molecular mass of VEGFR2 [3]: no effect
Bip expression [4]: not
average closure of the wound [5]: 66.9%

Reference: patent US20230390315A1, “COMPOSITIONS AND METHODS FOR TREATING ISCHEMIC CONDITIONS” (The Regents of the University of California, priority 2020, published 2023)
